Experimental data from publication PMC11096368, “Transcriptomic signature, bioactivity and safety of a non-hepatotoxic analgesic generating AM404 in the midbrain PAG region” (Scientific Reports, 2024).
Entries after “also recorded” stand apart in the source; their conditions may differ.

Experiments:
[1] = test system: Rat liver and stomach cells; test: In vivo mammalian alkaline comet assay; set-up: species or system rats
Method: Male Sprague–Dawley rats were orally administered SRP-001 at 500, 1000, or 2000 mg/kg/dose for two consecutive days at a dose volume of 10 mL/kg/dose (Bioreliance, Rockville, MD USA). The vehicle control was 10% Labrasol, 10% DMSO, and 80% PEG400. The positive control for the Comet assay, ethyl methanesulfonate (EMS), was orally administered at 200 mg/kg/dose for two consecutive days at a dose volume of 10 mL/kg/dose. […] Animals were euthanized 3–4 h after the last dose administration. The liver and glandular stomach were collected and processed for comet evaluation.
The group mean % tail DNA for the vehicle control was within the 95% control limit of the study historical data range, with one animal (#160) exceeding the individual animal 95% control limit but within the minimum/maximum range. Additionally, three animals (#173, 174, and 175) in the mid-dose (1000 mg/kg/dose) group likewise exceeded the individual animal 95% control limit but were within the minimum/maximum range.
The group mean % tail DNA for the vehicle control was within the 95% control limit of the study historical data range, with one animal (#158) exceeding both the individual animal 95% control limit and minimum/maximum ranges. One animal (#171) in the mid-dose (1000 mg/kg/dose) group and one animal (#180) in the high-dose (2000 mg/kg/dose) group exceeded just the 95% control limit range but were within the minimum/maximum range. One animal (#170) in the mid-dose (1000 mg/kg/dose) group and one animal (#179) in the high-dose (2000 mg/kg/dose) group exceeded both the individual animal 95% control limit and minimum/maximum ranges.

[2] = Stability of API and oral nanosuspension; type: physicochemical
Method: The drug therapeutic candidate is manufactured in a two-step process (Latitude Pharmaceuticals, Inc., San Diego, CA, USA). First, SRP-001 is jet milled. Second, the milled API is dispersed in a solution comprising 1% hydroxypropyl cellulose (1% HPC) and sterile water for injection and subjected to wet milling. The target particle size is approximately D90 0.15 μm. […] An oral nanoparticle suspension containing 100 mg/mL SRP-001 in aqueous 1% HPC preserved with 0.1% sodium benzoate was manufactured for use in nonclinical studies as Lot LPI2021028 and stored at 5 °C ± 3 °C. […] The same formulation as above was manufactured under cGMP for use in clinical studies as Lot LPI2021031 and stored at 5 °C ± 3 °C. […] This lot has been placed on stability at 5 °C, 25 °C/60%RH, and 40 °C/75%RH. Finally, an appearance-matched placebo consisting of 2% microcrystalline cellulose in aqueous 1% HPC preserved with 0.1% sodium benzoate and 0.05% EDTA disodium dihydrate was manufactured under cGMP for use in clinical studies. The above oral suspensions were manufactured by Latitude Pharmaceuticals Inc. (San Diego, CA, USA).

[3] = test system: FAAH, CORO2A, and RPL7L1 expression; test: Single-cell RNA sequencing of midbrain PAG in the CFA model; type: in vivo; settings: 100 mg/kg, 1 h, CFA rats
Method: Subsequently, we endeavored to explore the single-cell transcriptome of the eVF rat mid-brain PAG region to further define the mechanisms of action (MOA) of chronic inflammatory pain and, ultimately, SRP-001- and ApAP-mediated pain modulation. Left hind paws of Sprague Dawley rats were injected with 150 µl of 50% complete Freund’s adjuvant (CFA), freshly diluted with sterile saline on the day of administration, to induce conspicuous long-standing inflammatory pain in the rats’ hind paws, along with mechanical hyperalgesia tested using eVF.to induce local inflammation and a chronic pain state. We dosed the rats with ApAP or SRP-001 (100 mg/kg), and after 1 h, they were euthanized to dissect the PAG from flash-frozen brains for 10xGenomics single-nuclei RNA library preparation (Fig. 4a).
For cell nuclei isolation from the midbrain PAG, they were flash-frozen, dissected (by a cryotome), minced into small pieces, homogenized, filtered through 70 μ strainer and centrifuged. ReadiDrop 7-AAD cell viability dye (Bio-Rad) added, and flow sorted the live (7-AAD positive) nuclei in a BioRad Cell Sorter S3e using purity mode. Nuclei were counted using Nexcelom automated Cellometer with acridine orange/propidium iodide (AOPI) stain, and the Nuclei Stock Concentration used so that 10,000 nuclei could be targeted for each sample. […]

beagle dogs = settings: dog, in vivo
Method: Two beagle dogs (1/sex) were administered 30, 100, 250, or 500 mg/kg SRP-001. […] After a period of at least 2 d (minimum of 44 h) following the previous dose of test article, additional dose levels of SRP-001, as indicated above, were administered by oral gavage to the same 2 dogs (1 male and 1 female). Each dose was based on the dog’s most recent body weight. Mortality/morbidity was observed twice daily and once prior to scheduled sacrifice. Body weights were recorded prior to randomization/selection, prior to each dose administration, and prior to scheduled sacrifice. At scheduled sacrifice, a gross necropsy was performed, and the tissues were appropriately discarded. […] Doses for Phase II of the study were set based on Phase I results. The actual dose amounts selected for Phase II of the study were 0, 30, 100, or 300 mg/kg/d of SRP-001. These doses were administered once daily for seven consecutive days to 1 Beagle dog/sex/dose.

CCN(CC)C(=O)c1ccccc1S(=O)(=O)NCC(=O)Nc1ccc(O)cc1 [SRP-001, N,N-diethyl-2-[[2-(4-hydroxyanilino)-2-oxo-ethyl]sulfamoyl]benzamide]
% tail DNA, glandular stomach ([1]; 500, 1000, 2000 mg/kg/dose): No statistically significant increases | % tail DNA, liver ([1]; 500, 1000, 2000 mg/kg/dose): No statistically significant increases | Comet assay result (DNA damage in liver and stomach) ([1]; up to 2000 mg/kg/dose, two consecutive days, oral): negative; also recorded: negative (non-DNA damaging) | Stability of the API ([2]; 25 °C/60%RH): at least 9 months | Stability of the API ([2]; 40 °C/75%RH): ≥ 6 months | Expression of FAAH, CORO2A, and RPL7L1 in PAG (scRNAseq) [3]: Downregulation | Gross necropsy (beagle dogs): some red discoloration in the GI tract
